The source of these data is patent publication US12258329B2 (Merck Sharp & Dohme LLC, priority 2018, dated 2025).

This assay concerns infected PBMCs (VSV-G pseudotyped HIV virus VSV-G/pNLG1-P2A-ΔEnv). The experiment in a line: cells. The note with it: Homo sapiens, PBMC, read-out: TACK EC50. Type of assay: cell-based, human.
Regarding `Cc1nc(C)c(Cn2cnc(C(C)(F)F)c(Oc3c(C)cc(C#N)cc3C(F)(F)F)c2=O)c(=O)[nH]1` [Example 16, 4-((4-(1,1-difluoroethyl)-1-((4-hydroxy-2,6-dimethylpyrimidin-5-yl)methyl)-6-oxo-1,6-dihydropyrimidin-5-yl)oxy)-3-methyl-5-(trifluoromethyl)benzonitrile], the EC50 came out at 0.199 µM.

For `Cc1nc(C)c(Cn2cnc(C(F)(F)C(F)F)c(Oc3c(C)cc(C#N)cc3C3CC3)c2=O)c(=O)[nH]1` [Example 19, 3-cyclopropyl-4-((1-((2,4-dimethyl-6-oxo-1,6-dihydropyrimidin-5-yl)methyl)-6-oxo-4-(1,1,2,2-tetrafluoroethyl)-1,6-dihydropyrimidin-5-yl)oxy)-5-methylbenzonitrile], the EC50 was found to be 0.315 µM.

Regarding `Cc1nc(C)c(Cn2cnc(C(F)(F)C(F)F)c(Oc3c(C)cc(C#N)cc3C(F)F)c2=O)c(=O)[nH]1` [Example 20, 3-(difluoromethyl)-4-((1-((2,4-dimethyl-6-oxo-1,6-dihydropyrimidin-5-yl)methyl)-6-oxo-4-(1,1,2,2-tetrafluoroethyl)-1,6-dihydropyrimidin-5-y1)oxy)-5-methylbenzonitrile], the EC50 was determined as 0.365 µM.

With `Cc1nc(C)c(Cn2cnc(C(F)(F)C(F)F)c(Oc3cc(C(F)F)cc(C#N)c3Cl)c2=O)c(=O)[nH]1` [Example 21, 2-chloro-5-(difluoromethyl)-3-((1-((2,4-dimethyl-6-oxo-1,6-dihydropyrimidin-5-yl)methyl)-6-oxo-4-(1,1,2,2-tetrafluoroethyl)-1,6-dihydropyrimidin-5-yl)oxy)benzonitrile], the EC50 was determined as 0.132 µM.

Turning to `Cc1nc(C)c(Cn2cnc(C(C)(F)F)c(Oc3cc(Cl)cc(C#N)c3F)c2=O)c(=O)[nH]1` [Example 22, 5-Chloro-3-((4-(1,1-difluoroethyl)-1-((2,4-dimethyl-6-oxo-1,6-dihydropyrimidin-5-yl)methyl)-6-oxo-1,6-dihydropyrimidin-5-yl)oxy)-2-fluorobenzonitrile], the EC50 came out at 0.181 µM.

As for `Cc1nc(C)c(Cn2cnc(C(C)(F)F)c(Oc3cc(C#N)cc(C(F)F)c3)c2=O)c(=O)[nH]1` [Example 23, 3-((4-(1,1-difluoroethyl)-1-((2,4-dimethyl-6-oxo-1,6-dihydropyrimidin-5-yl)methyl)-6-oxo-1,6-dihydropyrimidin-5-yl)oxy)-5-(difluoromethyl)benzonitrile], the EC50 is 0.429 µM.

As for `Cc1nc(COc2ncccn2)[nH]c(=O)c1Cn1cnc(C(C)(F)F)c(Oc2cc(Cl)cc(C#N)c2F)c1=O` [Example 24, 5-chloro-3-((4-(1,1-difluoroethyl)-1-((4-methyl-6-oxo-2-((pyrimidin-2-yloxy)methyl)-1,6-dihydropyrimidin-5-yl)methyl)-6-oxo-1,6-dihydropyrimidin-5-yl)oxy)-2-fluorobenzonitrile], the EC50 is 0.339 µM.

Consider `Cc1nc(COc2ncccn2)[nH]c(=O)c1Cn1cnc(C(C)(F)F)c(Oc2cc(C(F)F)cc(C#N)c2C)c1=O` [Example 25, 3-((4-(1,1-difluoroethyl)-1-((4-methyl-6-oxo-2-((pyrimidin-2-yloxy)methyl)-1,6-dihydropyrimidin-5-yl)methyl)-6-oxo-1,6-dihydropyrimidin-5-yl)oxy)-5-(difluoromethyl)-2-methylbenzonitrile], for which the EC50 worked out at 0.353 µM.

Turning to `Cc1cc(C#N)c(C)c(Oc2c(Br)ncn(Cc3c(C)nc(C)[nH]c3=O)c2=O)c1` [Example 26, 3-((4-bromo-1-((2,4-dimethyl-6-oxo-1,6-dihydropyrimidin-5-yl)methyl)-6-oxo-1,6-dihydropyrimidin-5-yl)oxy)-2,5-dimethylbenzonitrile], the EC50 was determined as 0.413 µM.

As for `Cc1nc(C)c(Cn2cnc(C(F)(F)C(F)F)c(Oc3cc(Cl)cc(C#N)c3N)c2=O)c(=O)[nH]1` [Example 27, 2-amino-5-chloro-3-((1-((2,4-dimethyl-6-oxo-1,6-dihydropyrimidin-5-yl)methyl)-6-oxo-4-(1,1,2,2-tetrafluoroethyl)-1,6-dihydropyrimidin-5-yl)oxy)benzonitrile], the EC50 is 0.451 µM.

Regarding `Cc1nc(N)c(Cn2cnc(C(F)(F)C(F)(F)F)c(Oc3cc(C(F)F)cc(C#N)c3C)c2=O)c(=O)[nH]1` [Example 37, 3-((1-((4-amino-2-methyl-6-oxo-1,6-dihydropyrimidin-5-yl)methyl)-6-oxo-4-(perfluoroethyl)-1,6-dihydropyrimidin-5-yl)oxy)-5-(difluoromethyl)-2-methylbenzonitrile], the EC50 is 0.114 µM.

As for `Cc1nc(N)c(Cn2cnc(C(F)(F)C(F)(F)F)c(Oc3cc(Cl)cc(C#N)c3F)c2=O)c(=O)[nH]1` [Example 38, 3-((1-((4-amino-2-methyl-6-oxo-1,6-dihydropyrimidin-5-yl)methyl)-6-oxo-4-(perfluoroethyl)-1,6-dihydropyrimidin-5-yl)oxy)-5-chloro-2-fluorobenzonitrile], the EC50 stood at 0.481 µM.

Consider `Cc1nc(N)c(Cn2cnc(C(F)(F)C(F)F)c(Oc3cc(Cl)cc(C#N)c3F)c2=O)c(=O)[nH]1` [Example 39, 3-((1-((4-amino-2-methyl-6-oxo-1,6-dihydropyrimidin-5-yl)methyl)-6-oxo-4-(1,1,2,2-tetrafluoroethyl)-1,6-dihydropyrimidin-5-yl)oxy)-5-chloro-2-fluorobenzonitrile], for which the EC50 stood at 0.265 µM.

Take `Cc1cc(C#N)c(F)c(Oc2c(C(F)(F)C(F)F)ncn(Cc3c(C)nc(C)[nH]c3=O)c2=O)c1` [Example 40, 3-((1-((2,4-dimethyl-6-oxo-1,6-dihydropyrimidin-5-yl)methyl)-6-oxo-4-(1,1,2,2-tetrafluoroethyl)-1,6-dihydropyrimidin-5-yl)oxy)-2-fluoro-5-methylbenzonitrile]: the EC50 was 0.198 µM.

With `Cc1cc(C#N)c(F)c(Oc2c(C(C)(F)F)ncn(Cc3c(C)nc(C)[nH]c3=O)c2=O)c1` [Example 41, 3-((4-(1,1-difluoroethyl)-1-((2,4-dimethyl-6-oxo-1,6-dihydropyrimidin-5-yl)methyl)-6-oxo-1,6-dihydropyrimidin-5-yl)oxy)-2-fluoro-5-methylbenzonitrile], the EC50 came to 0.363 µM.

As for `CCc1cc(C#N)c(F)c(Oc2c(C(F)(F)C(F)F)ncn(Cc3c(C)nc(C)[nH]c3=O)c2=O)c1` [Example 42, 3-((1-((2,4-dimethyl-6-oxo-1,6-dihydropyrimidin-5-yl)methyl)-6-oxo-4-(1,1,2,2-tetrafluoroethyl)-1,6-dihydropyrimidin-5-yl)oxy)-5-ethyl-2-fluorobenzonitrile], the EC50 turned out to be 0.308 µM.

`Cc1nc(CO)[nH]c(=O)c1Cn1cnc(C(F)(F)C(F)F)c(Oc2cc(Cl)cc(C#N)c2F)c1=O` [Example 45, 5-chloro-2-fluoro-3-((1-((2-(hydroxymethyl)-4-methyl-6-oxo-1,6-dihydropyrimidin-5-yl)methyl)-6-oxo-4-(1,1,2,2-tetrafluoroethyl)-1,6-dihydropyrimidin-5-yl)oxy)benzonitrile]: the EC50 worked out at 0.257 µM.

For `Cc1c(C#N)cc(C(F)F)cc1Oc1c(C(F)(F)C(F)F)ncn(Cc2cnc(CCCO)[nH]c2=O)c1=O` [Example 46, 5-(difluoromethyl)-3-((1-((2-(3-hydroxypropyl)-6-oxo-1,6-dihydropyrimidin-5-yl)methyl)-6-oxo-4-(1,1,2,2-tetrafluoroethyl)-1,6-dihydropyrimidin-5-yl)oxy)-2-methylbenzonitrile], the EC50 stood at 0.303 µM.

Consider `Cc1c(C#N)cc(C(F)F)cc1Oc1c(C(F)(F)C(F)F)ncn(Cc2cnc(-c3cnn(C)c3)[nH]c2=O)c1=O` [Example 47, 5-(difluoromethyl)-2-methyl-3-((1-((2-(1-methyl-1H-pyrazol-4-yl)-6-oxo-1,6-dihydropyrimidin-5-yl)methyl)-6-oxo-4-(1,1,2,2-tetrafluoroethyl)-1,6-dihydropyrimidin-5-yl)oxy)benzonitrile], for which the EC50 stood at 0.394 µM.

Take `Cc1nc(CO)[nH]c(=O)c1Cn1cnc(C(F)(F)C(F)F)c(Oc2cc(C(F)F)cc(C#N)c2C)c1=O` [Example 48, 5-(difluoromethyl)-3-((1-((2-(hydroxymethyl)-4-methyl-6-oxo-1,6-dihydropyrimidin-5-yl)methyl)-6-oxo-4-(1,1,2,2-tetrafluoroethyl)-1,6-dihydropyrimidin-5-yl)oxy)-2-methylbenzonitrile]: the EC50 worked out at 0.342 µM.

Take `Cc1nc(CCCO)[nH]c(=O)c1Cn1cnc(C(F)(F)C(F)F)c(Oc2cc(C(F)F)cc(C#N)c2C)c1=O` [Example 49, 5-(difluoromethyl)-3-((1-((2-(3-hydroxypropyl)-4-methyl-6-oxo-1,6-dihydropyrimidin-5-yl)methyl)-6-oxo-4-(1,1,2,2-tetrafluoroethyl)-1,6-dihydropyrimidin-5-yl)oxy)-2-methylbenzonitrile]: the EC50 was 0.278 µM.

On to `Cc1cc(C#N)cc(C)c1Oc1c(C(F)(F)C(F)F)ncn(Cc2c(C)nc(CCCO)[nH]c2=O)c1=O` [Example 50, 4-((1-((2-(3-hydroxypropyl)-4-methyl-6-oxo-1,6-dihydropyrimidin-5-yl)methyl)-6-oxo-4-(1,1,2,2-tetrafluoroethyl)-1,6-dihydropyrimidin-5-yl)oxy)-3,5-dimethylbenzonitrile], for which the EC50 is 0.25 µM.

For the compound `COCc1nc(C)c(Cn2cnc(C(F)(F)C(F)F)c(Oc3cc(C(F)F)cc(C#N)c3C)c2=O)c(=O)[nH]1` [Example 51, 5-(difluoromethyl)-3-((1-((2-(methoxymethyl)-4-methyl-6-oxo-1,6-dihydropyrimidin-5-yl)methyl)-6-oxo-4-(1,1,2,2-tetrafluoroethyl)-1,6-dihydropyrimidin-5-yl)oxy)-2-methylbenzonitrile], the EC50 was found to be 0.395 µM.

For the compound `COCCCc1nc(C)c(Cn2cnc(C(F)(F)C(F)(F)F)c(Oc3cc(Cl)cc(C#N)c3F)c2=O)c(=O)[nH]1` [Example 55, 5-chloro-2-fluoro-3-((1-((2-(3-methoxypropyl)-4-methyl-6-oxo-1,6-dihydropyrimidin-5-yl)methyl)-6-oxo-4-(perfluoroethyl)-1,6-dihydropyrimidin-5-yl)oxy)benzonitrile], the EC50 turned out to be 0.276 µM.

In the case of `COC(=O)CCc1nc(C)c(Cn2cnc(C(F)(F)C(F)(F)F)c(Oc3cc(Cl)cc(C#N)c3F)c2=O)c(=O)[nH]1` [Example 56, Methyl 3-(5-((5-(5-chloro-3-cyano-2-fluorophenoxy)-6-oxo-4-(perfluoroethyl)pyrimidin-1 (6H)-yl)methyl)-4-methyl-6-oxo-1,6-dihydropyrimidin-2-yl)propanoate], the EC50 stood at 0.161 µM.
